Article PMC11200018 (2024)

What was measured:
[1] = test system: 32BrTelQD (DNA, G4, 8-bromo-2'-deoxyguanosine at 32) GGGCGCGAAGCATTCGCGGGGTTAGGGTTAGGG; test: NMR titration and induced CD; settings: 120 mM K+; 120 mM K+ buffer, pH 7.0; incomplete refolding, polymorphic complex
[2] = test system: TelQD31 (DNA, G4) GGGCGCGAAGCATTCGCGGGGTTAGGGTGGG; test: NMR titration; settings: 120 mM K+; 120 mM K+ buffer, pH 7.0; binding at quadruplex-duplex junction
[3] = test system: TelQD (DNA, G4) GGGCGCGAAGCATTCGCGGGGTTAGGGTTAGGG; test: NMR solution structure; settings: 120 mM K+; 20 mM potassium phosphate, 100 mM KCl, pH 7.0, 25 °C; refolds to (3+1) hybrid-2

Measured: binding

C[n+]1cc(NC(=O)c2ccc3ccc4ccc(C(=O)Nc5cc6ccccc6[n+](C)c5)nc4c3n2)cc2ccccc21
yes: all assays above
